Measurements: PMC5748155 (Journal of medicinal chemistry, 2017)

Tests used:
Conditions in all cases: relative to compound 2
[1] = tested on: HCV replicon D168V variant; assay type: cell-based, Hepatitis C virus
[2] = tested on: NS3/4A protease WT and variants; test: Enzyme inhibition assays, statements across WT protease and variants; assay type: biochemical, Hepatitis C virus
wild-type HCV replicon = assay type: cell-based, Hepatitis C virus
[3] = tested on: HCV replicon D168A variant; assay type: cell-based, Hepatitis C virus
GT1a WT NS3/4A Protease = GT1a WT NS3/4A Protease (Hepatitis C virus genotype 1a, UniProt P27958); test: Enzyme inhibition assay, wild-type GT1a protease; assay type: biochemical

In the case of `COc1ccc2nc(C)c(O[C@@H]3C[C@H]4C(=O)N[C@]5(C(=O)NS(=O)(=O)C6CC6)C[C@H]5/C=C\CCCCC[C@H](NC(=O)OC(C)(C)C)C(=O)N4C3)nc2c1` [Compound 18b], the “fold improvement in replicon potency against D168V variant” value [1] is reported as ~ 2 fold.
For `CCc1nc2ccccc2nc1O[C@@H]1C[C@H]2C(=O)N[C@]3(C(=O)NS(=O)(=O)C4CC4)C[C@H]3/C=C\CCCCC[C@H](NC(=O)OC(C)(C)C)C(=O)N2C1` [Compound 18g], the “fold decrease in biochemical potency” value [2] was “about 2 fold”.
`CCc1nc2ccc(OC)cc2nc1O[C@@H]1C[C@H]2C(=O)N[C@]3(C(=O)NS(=O)(=O)C4CC4)C[C@H]3/C=C\CCCCC[C@H](NC(=O)OC3CCCC3)C(=O)N2C1` [Compound 22a, Cyclopentyl ((2R,6S,13aS,14aR,16aS,Z)-14a-((cyclopropylsulfonyl)carbamoyl)-2-((3-ethyl-7-methoxyquinoxalin-2-yl)oxy)-5,16-dioxo-1,2,3,5,6,7,8,9,10,11,13a,14,14a,15,16,16a-hexadecahydrocyclopropa[e]pyrrolo[1,2-a][1,4]diazacyclopentadecin-6-yl)carbamate] was tested, and the “fold enhanced replicon potency against WT HCV” value (wild-type HCV replicon) was 2 fold, the “fold enhanced replicon potency against D168A variant” value [3] was 2 fold and the “fold increase in biochemical potency against WT protease” value (GT1a WT NS3/4A Protease) was 2 fold.
